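Cultured in 96-well plates, cells were exposed to test compound for 48 hours across five concentrations. GI50: concentration for 50% inhibition of growth.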 Calls of active or inactive are those of the source. No stated cut-off is given here; in the data, active = GI50 up to about 1.1 µM and inactive = higher.
How the values were obtained:
Assay in all cases: inhibition of tumour cell growth, NCI panel, 48 h
786-0 = system: 786-0
SR = system: SR
CAKI-1 = system: CAKI-1
UO-31 = system: UO-31
A549 = system: A549
SNB-19 = system: SNB-19
SN12C = system: SN12C
OVCAR-3 = system: OVCAR-3
HL-60 = system: HL-60
HOP-62 = system: HOP-62
RPMI-8226 = system: RPMI-8226
NCI-H226 = system: NCI-H226
EKVX = system: EKVX
OVCAR-4 = system: OVCAR-4
MDA-MB-435 = system: MDA-MB-435
T47D = system: T47D
MCF7 = system: MCF7
MDA-MB-231 = system: MDA-MB-231
MDA-N = system: MDA-N

| SMILES | GI50 (786-0) | GI50 (SR) | GI50 (CAKI-1) | GI50 (UO-31) | GI50 (A549) | GI50 (SNB-19) | GI50 (SN12C) | GI50 (OVCAR-3) | GI50 (HL-60) | GI50 (HOP-62) | GI50 (RPMI-8226) | GI50 (NCI-H226) | GI50 (EKVX) | GI50 (OVCAR-4) | GI50 (MDA-MB-435) | GI50 (T47D) | GI50 (MCF7) | GI50 (MDA-MB-231) | GI50 (MDA-N) |
| --- | --- | --- | --- | --- | --- | --- | --- | --- | --- | --- | --- | --- | --- | --- | --- | --- | --- | --- | --- |
| C=C(C)C12CC3CC(/C(=N/O)C(C1)/C3=N\O)[C@@]2(C)O (stereo partly specified) | > 100 µM (inactive) | > 100 µM (inactive) | > 100 µM (inactive) | > 100 µM (inactive) | > 100 µM (inactive) | > 100 µM (inactive) | > 100 µM (inactive) | > 100 µM (inactive) | > 100 µM (inactive) | > 100 µM (inactive) | > 100 µM (inactive) | > 100 µM (inactive) | > 100 µM (inactive) |  |  |  |  |  |  |
| O=C1COc2cc(NC(=S)Nc3ccccc3)ccc2N1 | > 100 µM (inactive) | > 100 µM (inactive) | > 100 µM (inactive) | > 100 µM (inactive) | > 100 µM (inactive) | > 100 µM (inactive) | > 100 µM (inactive) | > 100 µM (inactive) | > 100 µM (inactive) | > 100 µM (inactive) | > 100 µM (inactive) | > 100 µM (inactive) | > 100 µM (inactive) | > 100 µM (inactive) |  |  |  |  |  |
| C/C(=C\CBr)CCC(Br)C(C)(C)Cl (stereo unspecified) | > 100 µM (inactive) | > 100 µM (inactive) | > 100 µM (inactive) | > 100 µM (inactive) | > 100 µM (inactive) |  | > 100 µM (inactive) |  |  | > 100 µM (inactive) | > 100 µM (inactive) | > 100 µM (inactive) |  | > 100 µM (inactive) |  |  |  |  |  |
| C=C1C(=O)OC2CCCCC3OC3C12 (stereo unspecified) | 7.19 µM (inactive) | 23 µM (inactive) | 3.36 µM (inactive) | 15.4 µM (inactive) | 20.9 µM (inactive) | 20 µM (inactive) | 7.62 µM (inactive) | 13.4 µM (inactive) | 2.79 µM (inactive) | 21.8 µM (inactive) | 5.55 µM (inactive) |  | 16.9 µM (inactive) | 14.2 µM (inactive) |  |  |  |  |  |
| COc1cccc(/C=N\NC(=O)C(C)SC(C)C(=O)N/N=C/c2cccc(OC)c2)c1 (stereo unspecified) | 17.3 µM (inactive) | 40.5 µM (inactive) | 34.3 µM (inactive) | 41 µM (inactive) | 14.6 µM (inactive) | 20.8 µM (inactive) | 19.6 µM (inactive) | 20.7 µM (inactive) | > 62.1 µM (inactive) | 16 µM (inactive) | 32.7 µM (inactive) | 21.2 µM (inactive) | 27 µM (inactive) | 16.8 µM (inactive) |  |  |  |  |  |
| [O-][N+]1=C(c2ccccc2)/C(=C2/C(c3ccccc3)=[N+]([O-])c3ccccc32)Cc2ccccc21 | 15.3 µM (inactive) |  | 22 µM (inactive) | 14.5 µM (inactive) | 13.8 µM (inactive) | 19 µM (inactive) | 16.6 µM (inactive) | 16.8 µM (inactive) | 40.1 µM (inactive) | 32.4 µM (inactive) | 21.1 µM (inactive) | 22.5 µM (inactive) | 20.4 µM (inactive) | 13.8 µM (inactive) | 20.2 µM (inactive) | 16.3 µM (inactive) | 43.4 µM (inactive) | 13.6 µM (inactive) | 17.1 µM (inactive) |
| COC[C@@H](/N=C/c1ccc([N+](=O)[O-])cc1)C(C)C | > 100 µM (inactive) | 92.7 µM (inactive) | > 100 µM (inactive) | > 100 µM (inactive) | > 100 µM (inactive) | > 100 µM (inactive) | > 100 µM (inactive) |  |  |  | 25.2 µM (inactive) |  | > 100 µM (inactive) | > 100 µM (inactive) | > 100 µM (inactive) |  | 95.1 µM (inactive) | 3.24 µM (inactive) | 29.4 µM (inactive) |
| CCCCc1c2c(nc3c1CC/C(=C\c1ccc([N+](=O)[O-])cc1)C3=O)CCCC2 | 1.43 µM (inactive) | 2.86 µM (inactive) |  | 2.13 µM (inactive) | 4.41 µM (inactive) | 1.87 µM (inactive) | 1.88 µM (inactive) | 1.76 µM (inactive) |  | 1.73 µM (inactive) | 1.7 µM (inactive) | 2.28 µM (inactive) | 11.4 µM (inactive) |  |  |  |  |  |  |
| CC(C)(C)c1cc(C#N)c2c(c1)C(=O)OC2(c1ccccc1)c1ccccc1C#N (stereo unspecified) | > 100 µM (inactive) | 20.8 µM (inactive) | > 100 µM (inactive) | 32.1 µM (inactive) | > 100 µM (inactive) | > 100 µM (inactive) | > 100 µM (inactive) | 94.6 µM (inactive) | 7.38 µM (inactive) | > 100 µM (inactive) |  | > 100 µM (inactive) | > 100 µM (inactive) | > 100 µM (inactive) |  |  |  |  |  |
| COc1cc(Oc2c(O)c(C)c(OC)c(C(C)=O)c2O)c(C(C)=O)c(O)c1C | 60.7 µM (inactive) | > 100 µM (inactive) | 60.3 µM (inactive) | 43.1 µM (inactive) | 45.8 µM (inactive) | 63 µM (inactive) | 34.9 µM (inactive) | 43 µM (inactive) |  | 34.3 µM (inactive) |  | 85.9 µM (inactive) |  | 45.2 µM (inactive) |  |  |  |  |  |
| O=C1NC2(CCCCC2)C2CCCCC=C12 (stereo unspecified) | > 100 µM (inactive) | > 100 µM (inactive) | > 100 µM (inactive) | > 100 µM (inactive) | > 100 µM (inactive) | > 100 µM (inactive) | > 100 µM (inactive) | > 100 µM (inactive) | > 100 µM (inactive) | > 100 µM (inactive) | > 100 µM (inactive) |  | > 100 µM (inactive) | > 100 µM (inactive) |  |  |  |  |  |
| O=C(NC1CCCCC1)c1c(O)[nH]c(=S)[nH]c1=O | > 100 µM (inactive) | > 100 µM (inactive) | > 100 µM (inactive) | 79.3 µM (inactive) | 52.4 µM (inactive) | > 100 µM (inactive) | > 100 µM (inactive) | > 100 µM (inactive) |  | > 100 µM (inactive) | > 100 µM (inactive) | > 100 µM (inactive) |  | > 100 µM (inactive) |  |  |  |  |  |
| COc1ccc(C(c2c(O)c3ccccc3n(C)c2=O)c2c(O)c3ccccc3n(C)c2=O)cc1 | 28.1 µM (inactive) | 51.4 µM (inactive) | 38.2 µM (inactive) | 36.5 µM (inactive) | 37.5 µM (inactive) | 39.5 µM (inactive) | 66.5 µM (inactive) | 33 µM (inactive) | 31.6 µM (inactive) |  | 46 µM (inactive) | 24.5 µM (inactive) | 34.8 µM (inactive) | 62.8 µM (inactive) |  |  |  |  |  |
| CCOc1ccc2c(c1)[n+]([O-])c(-c1ccc([N+](=O)[O-])cc1)c(N)[n+]2[O-] | > 100 µM (inactive) | 67 µM (inactive) | > 100 µM (inactive) | 43.1 µM (inactive) | > 100 µM (inactive) | > 100 µM (inactive) | > 100 µM (inactive) | > 100 µM (inactive) | 96.8 µM (inactive) | > 100 µM (inactive) |  | > 100 µM (inactive) | > 100 µM (inactive) | > 100 µM (inactive) |  |  |  |  |  |
| CCOC(=O)C(C(=O)OCC)C(NC(=O)Nc1cc(C(F)(F)F)ccc1OC)(C(F)(F)F)C(F)(F)F | 24.6 µM (inactive) |  | 29.4 µM (inactive) | 21 µM (inactive) | 39.4 µM (inactive) | 39.9 µM (inactive) | 27.5 µM (inactive) | 26.1 µM (inactive) | 21.8 µM (inactive) | 25.4 µM (inactive) | 18.8 µM (inactive) | 25.5 µM (inactive) | 70.3 µM (inactive) | 23.2 µM (inactive) | 19.1 µM (inactive) | 30.4 µM (inactive) | 37.2 µM (inactive) | 17.4 µM (inactive) | 33.2 µM (inactive) |
| CNC(=O)OCc1cc2ccncc2c2c1[nH]c1ccccc12 | 26.7 µM (inactive) | 2.12 µM (inactive) | 3.21 µM (inactive) | > 100 µM (inactive) | > 27.4 µM (inactive) | > 53.7 µM (inactive) | > 100 µM (inactive) | > 100 µM (inactive) | 19.1 µM (inactive) | 10 µM (inactive) | > 88.3 µM (inactive) | > 100 µM (inactive) | > 100 µM (inactive) | > 100 µM (inactive) |  |  |  |  |  |
| CC(C)c1c(O[Si](C(C)C)(C(C)C)C(C)C)cc2c(c1O)CC[C@H]1C(C)(C)CCC[C@]21C | > 100 µM (inactive) |  | > 100 µM (inactive) | > 100 µM (inactive) | > 100 µM (inactive) | > 100 µM (inactive) | > 100 µM (inactive) | > 100 µM (inactive) | 24.6 µM (inactive) | > 100 µM (inactive) | 45.7 µM (inactive) | > 100 µM (inactive) | > 100 µM (inactive) | > 100 µM (inactive) | > 100 µM (inactive) |  | > 100 µM (inactive) | > 100 µM (inactive) | > 100 µM (inactive) |
| CCOC(=O)c1ccc(N[C@@H]2c3cc4c(cc3C(C3=CC(=O)C(=O)C(OC)=C3)[C@H]3C(=O)OCC32)OCO4)cc1 (stereo partly specified) | 1.6 µM (inactive) | 0.148 µM (active) | 0.634 µM (active) | 2.52 µM (inactive) | 0.548 µM (active) | 2.49 µM (inactive) | 2 µM (inactive) | 8.47 µM (inactive) | 0.802 µM (active) | 0.512 µM (active) | 1.06 µM (active) |  | 3.73 µM (inactive) | 24.2 µM (inactive) |  |  |  |  |  |
| COc1ccc(/N=c2/[nH]c(N)c(C(=O)c3ccc(OC)cc3)s2)cc1 | 0.441 µM (active) |  | 0.313 µM (active) | 0.468 µM (active) | 0.59 µM (active) | 0.474 µM (active) | 1.93 µM (inactive) | 0.255 µM (active) | 0.119 µM (active) |  | 0.164 µM (active) | 17.7 µM (inactive) | 17.3 µM (inactive) | 0.755 µM (active) | 0.0306 µM (active) | 18.7 µM (inactive) | 3.23 µM (inactive) | 1 µM (active) | 0.0301 µM (active) |
